GI50 and TGI data for 15 compounds are collected here from PubChem BioAssay (NCI).

Molecules are shown by their SMILES. Values joined by “and” are separate entries in the source; they are usually repeats but may differ in a detail not shown here. Identical values can stand only once.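 These data come from cells grown in 96-well plates and exposed to compound for 48 hours at five concentrations. GI50 = concentration required for 50% inhibition of growth. TGI denotes the concentration required for complete inhibition of growth.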 Where a SMILES comes first, the peptide text is derived from it. [ ]: non-standard residue; d: D form. The star is where a group is joined. ξ: configuration not given here. X6 = FC(F)(F)c1cc(NC(=S)*)cc(C(F)(F)F)c1; ξF = NC(Cc1ccccc1)C(=O)O Bounds are passed on as bounds.

One test deals with EKVX NSCLC. The test can be described thus: NCI tumour cell line growth inhibition, 48 h.
With `NC(=O)c1sc(-n2cnc3ccccc32)cc1OCc1ccccc1Br`, the GI50 is 17.9 µM and the TGI was over 25 µM.

With `Clc1ccc2c(NCCCCNc3nc(N4CCCCC4)nc4ccccc34)ccnc2c1`, the GI50 was 2.69 µM and the TGI is 13.8 µM.

Consider `COc1cc(/C=N/NC(=O)c2ccc(C(F)(F)F)nc2Nc2ccc(Cl)cc2C)ccc1O`, for which the GI50 is 1.06 µM and the TGI worked out at 12.4 µM.

On to `O=C1CC(c2ccc3c(c2)OCO3)Nc2ccccc21` (centres undefined), for which the GI50 is 11.8 µM and the TGI was found to be 46.4 µM.

For `O=C1C(Cl)=C(Nc2cccc(Cl)c2)C(=O)N1Cc1ccc(Cl)cc1Cl`, the GI50 is 9.31 µM and the TGI amounted to 34.4 µM.

With `COC1CCC(N2C(=O)CNc3ncc(-c4ccc(C(C)(C)O)nc4)nc32)CC1` (centres undefined), the GI50 was 1.21 µM and 0.186 µM; the TGI is > 8.47 µM and 6.7 µM.

Consider `Cc1cc(I)cc(CN(C)CCCCN2CCCCC2)c1O`, for which the GI50 was 20.9 µM and the TGI came out at 87.3 µM.

The subject of the next test is M14 melanoma. As to the kind of experiment: NCI tumour cell line growth inhibition, 48 h.
Compound `O=C1C=C(Cl)C(=O)C(c2ccc(Cl)cc2)=C1` returned a TGI of 32.2 µM.

In the case of `COc1cc(-c2nn(-c3ccc(NC(=O)c4ccc(Cl)c(C(F)(F)F)c4)cc3)cc2-c2ccncc2)ccc1Cl`, the GI50 is 2.51 µM and the TGI was determined as 8.26 µM.

As to `O=C(Nc1ccccc1OC(F)(F)F)Nc1n[nH]c2ccccc12`, the GI50 was 25.5 µM and the TGI was over 100 µM.

In the case of `O=C(/C=C/C12c3ccccc3C(c3ccccc31)C1C(=O)NC(=O)C12)c1ccncc1` (centres undefined), the GI50 was 2.44 µM and the TGI was 7.65 µM.

Regarding `O=CN/C=C/c1cc(O)ccc1O`, the TGI is 32.8 µM.

For the compound `COC(=O)[C@@H](NC(=O)CNC(=O)[C@H]1CCCN1C(=O)C(Cc1ccccc1)NC(=S)Nc1cc(C(F)(F)F)cc(C(F)(F)F)c1)C(C)C` (some centres undefined) (X6-[ξF][dP]GV-OMe), the GI50 was 3.33 µM and the TGI worked out at 10.5 µM.

For the compound `COc1cc(Cc2cnc(/N=C3\C(=O)N(CN4CCN(c5c(F)cc6c(=O)c(C(=O)O)cn(C7CC7)c6c5OC)CC4C)c4ccc(F)cc43)nc2N)cc(OC)c1OC` (centres undefined), the GI50 is 10.3 µM and the TGI stood at 22 µM.

As for `O=C1/C(=C/c2cccc([N+](=O)[O-])c2)COc2ccc(O)cc21`, the GI50 was 1.72 µM and the TGI amounted to 3.54 µM.

Take `NC(=O)c1sc(-n2cnc3ccccc32)cc1OCc1ccccc1Br`: the GI50 is 5.71 µM and the TGI is over 25 µM.

For the compound `Clc1ccc2c(NCCCCNc3nc(N4CCCCC4)nc4ccccc34)ccnc2c1`, the GI50 is 1.62 µM and the TGI is 3.14 µM.

Consider `COc1cc(/C=N/NC(=O)c2ccc(C(F)(F)F)nc2Nc2ccc(Cl)cc2C)ccc1O`, for which the GI50 is 3.76 µM and the TGI was found to be 14.6 µM.

On to `O=C1CC(c2ccc3c(c2)OCO3)Nc2ccccc21` (centres undefined), for which the GI50 is 14 µM and the TGI came to 30.5 µM.

`O=C1C(Cl)=C(Nc2cccc(Cl)c2)C(=O)N1Cc1ccc(Cl)cc1Cl`: the GI50 was 4.87 µM and the TGI was 21.9 µM.

For `COC1CCC(N2C(=O)CNc3ncc(-c4ccc(C(C)(C)O)nc4)nc32)CC1` (centres undefined), the GI50 is 0.614 µM and 0.134 µM; the TGI is > 6.95 µM and 11.8 µM.

`Cc1cc(I)cc(CN(C)CCCCN2CCCCC2)c1O`: the GI50 is 3.31 µM and the TGI worked out at 12.4 µM.

The next test concerns MOLT-4 leukemia. As to the kind of experiment: NCI tumour cell line growth inhibition, 48 h.
In turn, `O=C1C=C(Cl)C(=O)C(c2ccc(Cl)cc2)=C1` registered a TGI of 22.1 µM.

For the compound `COc1cc(-c2nn(-c3ccc(NC(=O)c4ccc(Cl)c(C(F)(F)F)c4)cc3)cc2-c2ccncc2)ccc1Cl`, the GI50 is 2.63 µM and the TGI amounted to 8.06 µM.

For the compound `O=C(Nc1ccccc1OC(F)(F)F)Nc1n[nH]c2ccccc12`, the GI50 was 5.91 µM and the TGI was over 100 µM.

For the compound `O=C(/C=C/C12c3ccccc3C(c3ccccc31)C1C(=O)NC(=O)C12)c1ccncc1` (centres undefined), the GI50 is 2.57 µM and the TGI is 9.17 µM.

The compound `O=CN/C=C/c1cc(O)ccc1O` returned a TGI of over 63.4 µM.

Consider `COC(=O)[C@@H](NC(=O)CNC(=O)[C@H]1CCCN1C(=O)C(Cc1ccccc1)NC(=S)Nc1cc(C(F)(F)F)cc(C(F)(F)F)c1)C(C)C` (some centres undefined) (X6-[ξF][dP]GV-OMe), for which the GI50 is 2.28 µM and the TGI worked out at 6.07 µM.

Take `COc1cc(Cc2cnc(/N=C3\C(=O)N(CN4CCN(c5c(F)cc6c(=O)c(C(=O)O)cn(C7CC7)c6c5OC)CC4C)c4ccc(F)cc43)nc2N)cc(OC)c1OC` (centres undefined): the GI50 is 1.16 µM and the TGI is 6.97 µM.

On to `O=C1/C(=C/c2cccc([N+](=O)[O-])c2)COc2ccc(O)cc21`, for which the GI50 was 2.05 µM and the TGI was 5.83 µM.

Take `NC(=O)c1sc(-n2cnc3ccccc32)cc1OCc1ccccc1Br`: the GI50 was 3.56 µM and the TGI is over 25 µM.

With `Clc1ccc2c(NCCCCNc3nc(N4CCCCC4)nc4ccccc34)ccnc2c1`, the GI50 is 1.98 µM and the TGI amounted to 5.62 µM.

Consider `COc1cc(/C=N/NC(=O)c2ccc(C(F)(F)F)nc2Nc2ccc(Cl)cc2C)ccc1O`, for which the GI50 is 0.554 µM and the TGI worked out at 2.75 µM.

As to `O=C1CC(c2ccc3c(c2)OCO3)Nc2ccccc21` (centres undefined), the GI50 was 12.8 µM and the TGI came out at 64.2 µM.

On to `O=C1C(Cl)=C(Nc2cccc(Cl)c2)C(=O)N1Cc1ccc(Cl)cc1Cl`, for which the TGI is over 100 µM.

For `COC1CCC(N2C(=O)CNc3ncc(-c4ccc(C(C)(C)O)nc4)nc32)CC1` (centres undefined), the GI50 is 1.51 µM and 0.437 µM; the TGI is over 100 µM.

Turning to `Cc1cc(I)cc(CN(C)CCCCN2CCCCC2)c1O`, the GI50 is 7.08 µM and the TGI came to 21.8 µM.
